The target of series [1] is T1, cloned human h-NK3 receptors expressed in CHO cells (Homo sapiens, UniProt P29371).
T1 construct: expressed in transfected cells; host or cells: CHO cells
T1 sequence (P29371 1-465): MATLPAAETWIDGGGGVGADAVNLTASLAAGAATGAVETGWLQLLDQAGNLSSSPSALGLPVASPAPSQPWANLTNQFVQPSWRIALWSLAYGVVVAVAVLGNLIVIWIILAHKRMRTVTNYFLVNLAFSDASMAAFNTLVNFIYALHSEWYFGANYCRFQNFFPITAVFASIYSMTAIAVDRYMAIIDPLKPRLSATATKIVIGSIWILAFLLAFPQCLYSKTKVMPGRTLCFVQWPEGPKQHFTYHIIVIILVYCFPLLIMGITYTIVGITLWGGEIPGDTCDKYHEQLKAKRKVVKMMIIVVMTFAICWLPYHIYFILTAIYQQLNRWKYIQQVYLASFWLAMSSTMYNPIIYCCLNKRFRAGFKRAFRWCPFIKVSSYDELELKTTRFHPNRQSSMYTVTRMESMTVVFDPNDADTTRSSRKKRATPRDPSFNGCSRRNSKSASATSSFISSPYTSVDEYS
The series can be described thus: Binding experiment for h-NK3 receptors ([3H]-SR-142801 displacement). Conditions: [3H]-SR-142801, CHO cells; read-out: h-NK3 pIC50 (converted). As for the experimental part:
The compounds according to the invention were investigated for interaction with various neurotransmitter receptors, ion channels and transporter binding sites using the radioligand binding technique. Membranes from tissue homogenates or from cells, expressing the receptor or transporter of interests, were incubated with a radioactively labelled substance ([^3H]- or [^125I] ligand) to label a particular receptor. […] Following incubation, labelled membranes were harvested and rinsed with excessive cold buffer to remove non-bound radioactivity by rapid filtration under suction. Membrane bound radioactivity was counted in a scintillation counter and results were expressed in counts per minute (cpm).
The compounds were dissolved in DMSO and tested at 10 concentrations ranging from 10^−10 to 10^−5 M.
The ability of the compounds according to the invention to displace [^3H]-Substance P from cloned human h-NK1 receptors expressed in CHO cells, to displace [^3H]-SR-48968 from cloned human h-NK2 receptors expressed in Sf9 cells, and to displace [^3H]-SR-142801 from cloned human h-NK3 receptors expressed in CHO cells was evaluated.

Series [2] deals with T2, cloned human h-NK1 receptors expressed in CHO cells (Homo sapiens, UniProt P25103).
T2 construct: expressed in transfected cells; host or cells: CHO cells
T2 sequence (P25103 whole entry): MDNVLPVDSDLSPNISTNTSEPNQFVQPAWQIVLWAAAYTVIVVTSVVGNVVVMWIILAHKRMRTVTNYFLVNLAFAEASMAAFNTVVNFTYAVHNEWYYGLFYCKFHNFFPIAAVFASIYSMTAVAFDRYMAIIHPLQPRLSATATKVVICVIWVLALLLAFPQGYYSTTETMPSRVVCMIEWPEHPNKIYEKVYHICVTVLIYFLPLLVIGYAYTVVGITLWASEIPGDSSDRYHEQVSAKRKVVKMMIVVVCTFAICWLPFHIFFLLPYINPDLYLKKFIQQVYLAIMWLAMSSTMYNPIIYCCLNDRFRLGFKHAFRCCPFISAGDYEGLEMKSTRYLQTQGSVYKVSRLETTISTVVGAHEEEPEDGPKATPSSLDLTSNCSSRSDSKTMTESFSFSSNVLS
The series can be described thus: Binding experiment for h-NK1 receptors ([3H]-Substance P displacement). As to conditions: read-out: h-NK1 pIC50 (converted).

The target of series [3] is T3, cloned human h-NK2 receptors expressed in Sf9 cells (Homo sapiens, UniProt P21452).
T3 construct: expressed in transfected cells; host or cells: Sf9 cells
T3 sequence (P21452 1-398): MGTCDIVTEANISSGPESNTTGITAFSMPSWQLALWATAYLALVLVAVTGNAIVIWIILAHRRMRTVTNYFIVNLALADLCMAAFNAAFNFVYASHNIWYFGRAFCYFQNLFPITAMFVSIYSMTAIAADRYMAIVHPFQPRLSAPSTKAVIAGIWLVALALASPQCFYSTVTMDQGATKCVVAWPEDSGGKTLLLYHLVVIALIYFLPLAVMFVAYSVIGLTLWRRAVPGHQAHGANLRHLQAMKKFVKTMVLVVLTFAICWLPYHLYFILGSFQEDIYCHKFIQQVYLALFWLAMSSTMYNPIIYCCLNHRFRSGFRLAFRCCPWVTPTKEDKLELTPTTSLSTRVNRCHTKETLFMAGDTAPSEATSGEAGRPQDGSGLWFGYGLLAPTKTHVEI
The series can be described thus: Binding experiment for h-NK2 receptors ([3H]-SR-48968 displacement). Conditions: [3H]-SR-48968, Sf9 cells; read-out: h-NK2 pIC50 (converted).

The test system of series [4] is loperamide-induced retching. Briefly: Antiemetic effects: loperamide-induced retching in ferrets. Conditions: ferrets. In kind it is in vivo. As for the experimental part: The antiemetic effects have been determined using the loperamide-induced retching model (i.e. retching induced by an opioid) in ferrets. To exclude species differences in antiemetic activiey, both compounds have also been tested for antiemetic activity against apomorphine in dogs.
Antagonism of emesis induced by the peripherally selective opioid loperamide (0.31 mg/kg, s.c.) was studied over a 1 h-period starting immediately after the emetic challenge in ferrets pretreated with test compound or solvent. In control animals pre-treated with solvent, loperamide induced pronounced retching (mean±SD: 95±39 counts; n=[…]) and, to a lesser extent, vomiting (5±4).

Molecules are shown by their SMILES. Like-named read-outs stand apart in the source and are kept apart here.

`O=C(c1cc(C(F)(F)F)cc(C(F)(F)F)c1)N1CCC(N2CCN(C3CCN(Cc4nc5ccccc5[nH]4)CC3)CC2)CC1Cc1ccccc1` (stereo not drawn) [Compound 7]: the melting point stood at 135 °C. Also, in series [1], the IC50 was 1000 nM. Moreover, the IC50 in series [2] is 7.94 nM. Moreover, the IC50 in series [3] is 1000 nM.
For `O=C(c1ccccc1)N1CCC(N2CCN(C3CCN(C(=O)c4cc(C(F)(F)F)cc(C(F)(F)F)c4)C(Cc4ccccc4)C3)CC2)CC1` (stereo not drawn) [Compound 3, {4-[4-(1-benzoyl-piperidin-4-yl)-piperazin-1-yl]-2-benzyl-piperidin-1-yl}-(3,5-bis-trifluoromethyl-phenyl)-methanone], the IC50 in series [1] was 251 nM; in series [2], 1.26 nM; in series [3] it was 501 nM. In addition, the “ratio of oral ED50 (at time of peak effect) over subcutaneous ED50 (obtained at 1 h)” value in series [4] is 1.4-1.8. Also, the ED50 in series [4] (blockade (=0 retches), intravenous route, 1 h after administration, read-out: ED50 for blockade of loperamide-induced retching) was 0.88 mg/kg; in series [4] (blockade (=0 retches), oral route, 1 h after administration, read-out: ED50 for blockade of loperamide-induced retching), 1.65 mg/kg; in series [4] (blockade (=0 retches), oral route, 2 h after administration, read-out: ED50 for blockade of loperamide-induced retching), 2.18 mg/kg; in series [4] (blockade (=0 retches), oral route, 4 h after administration, read-out: ED50 for blockade of loperamide-induced retching), 1.25 mg/kg; in series [4] (blockade (=0 retches), oral route, 8 h after administration, read-out: ED50 for blockade of loperamide-induced retching), 2.89 mg/kg; in series [4] (blockade (=0 retches), oral route, 16 h after administration, read-out: ED50 for blockade of loperamide-induced retching), 2.89 mg/kg. The ED50 was 5 mg/kg in series [4] (blockade (=0 retches), oral route, 32 h after administration, read-out: ED50 for blockade of loperamide-induced retching); more than 10 mg/kg in series [4] (blockade (=0 retches), oral route, 64 h after administration, read-out: ED50 for blockade of loperamide-induced retching); 0.39 mg/kg in series [4] (inhibition (<20 retches), intravenous route, 1 h after administration, read-out: ED50 for inhibition of loperamide-induced retching); 0.72 mg/kg in series [4] (inhibition (<20 retches), oral route, 1 h after administration, read-out: ED50 for inhibition of loperamide-induced retching); 0.96 mg/kg in series [4] (inhibition (<20 retches), oral route, 2 h after administration, read-out: ED50 for inhibition of loperamide-induced retching); 1.25 mg/kg in series [4] (inhibition (<20 retches), oral route, 4 h after administration, read-out: ED50 for inhibition of loperamide-induced retching). Also, the ED50 was 1.25 mg/kg in series [4] (inhibition (<20 retches), oral route, 8 h after administration, read-out: ED50 for inhibition of loperamide-induced retching); 1.26 mg/kg in series [4] (inhibition (<20 retches), oral route, 16 h after administration, read-out: ED50 for inhibition of loperamide-induced retching); 3.81 mg/kg in series [4] (inhibition (<20 retches), oral route, 32 h after administration, read-out: ED50 for inhibition of loperamide-induced retching); more than 10 mg/kg in series [4] (inhibition (<20 retches), oral route, 64 h after administration, read-out: ED50 for inhibition of loperamide-induced retching); 1.4 mg/kg in series [4] (oral administration, time of peak effect, read-out: graphically estimated peak-effect ED50 for blockade of retching (=0 retches)); 0.88 mg/kg in series [4] (iv, read-out: ED50 for blockade of retching 1 h after i.v. injection, i.v., 1 h). The ED50 in series [4] (iv, read-out: ED50 for inhibition of retching 1 h after i.v. injection, i.v., 1 h) was 0.39 mg/kg; in series [4] (read-out: ED50 (95% confidence limits) for blockade of loperamide-induced retching, p.o. route (−2 h), loperamide 0.31 mg/kg s.c., 2 h after oral administration, blockade = 0 retches) it was 2.18 mg/kg; in series [4] (read-out: graphically estimated peak-effect ED50 for inhibition of retching (<20 retches), oral administration, time of peak effect) it was 1 mg/kg; in series [4] (sc, read-out: ED50 for blockade of loperamide-induced retching, loperamide 0.31 mg/kg s.c., 1 h after subcutaneous administration, blockade = 0 retches) it was 0.96 mg/kg; in series [4] (sc, blockade (=0 retches), subcutaneous route, 1 h after administration, read-out: ED50 for blockade of loperamide-induced retching), 0.96 mg/kg; in series [4] (sc, inhibition (<20 retches), subcutaneous route, 1 h after administration, read-out: ED50 for inhibition of loperamide-induced retching) it was 0.55 mg/kg. In addition, the ED50 in series [4] (sc, s.c., 1 h, <20 retches, read-out: ED50 for inhibition of retching one hour after s.c. injection) was 0.55 mg/kg; in series [4] (sc, s.c., 1 h, =0 retches, read-out: ED50 for complete blockade of retching one hour after s.c. injection) it was 0.96 mg/kg. The same compound had a duration of action in series [4] (oral, at 4 times the peak-effect dose) of 32 h. Further, the “Ratio p.o./s.c. of ED50 for blockade of retching” value in series [4] (p.o. (−2 h) over s.c. (−1 h)) amounted to 2.3.
Regarding `COc1ccc(C)cc1S(=O)(=O)N1CCC(N2CCN(C3CCN(C(=O)c4cc(C(F)(F)F)cc(C(F)(F)F)c4)C(Cc4ccccc4)C3)CC2)CC1` (stereo not drawn) [Compound 119], the IC50 was 1000 nM in series [1], 25.1 nM in series [2] and 1000 nM in series [3].
With `Cc1cc(C)cc(CN2CCC(N3CCN([C@H]4CCN(C(=O)c5cc(C(F)(F)F)cc(C(F)(F)F)c5)[C@H](Cc5ccccc5)C4)CC3)CC2)c1` [Compound 22], the IC50 in series [1] was 316 nM; in series [2], 0.398 nM; in series [3] it was 631 nM.
Turning to `O=C(c1cc(C(F)(F)F)cc(C(F)(F)F)c1)N1CCC(N2CCN(C3CCN(Cc4cc(C(F)(F)F)cc(C(F)(F)F)c4)CC3)CC2)CC1Cc1ccccc1` (stereo not drawn) [Compound 26], the IC50 in series [1] is 1000 nM; in series [2], 39.8 nM; in series [3], 1000 nM.
As to `CC(C)(C)OC(=O)N1CCCCC1C(=O)N1CCC(N2CCN([C@H]3CCN(C(=O)c4cc(C(F)(F)F)cc(C(F)(F)F)c4)[C@H](Cc4ccccc4)C3)CC2)CC1` (stereo partly drawn) [Compound 89], the values for the IC50 in series [1], in series [2] and in series [3] were 631 nM, 2.51 nM and 631 nM, respectively.
Turning to `Cc1ccc(O)c(C(=O)N2CCC(N3CCN([C@H]4CCN(C(=O)c5cc(C(F)(F)F)cc(C(F)(F)F)c5)[C@H](Cc5ccccc5)C4)CC3)CC2)c1` [Compound 56], the IC50 in series [1] was 200 nM; in series [2], 1 nM; in series [3], 501 nM.
`COc1cc(C(=O)N2CCC(N3CCN([C@H]4CCN(C(=O)c5cc(C(F)(F)F)cc(C(F)(F)F)c5)[C@H](Cc5ccccc5)C4)CC3)CC2)cc(OC)c1OC` [Compound 65]: the IC50 in series [1] is 251 nM; in series [2], 3.98 nM; in series [3], 631 nM.

A word on the melting point: it is the temperature of the solid-liquid transition. What is called ED50 is the midpoint of the dose-response relation.

Values taken from US20060128721A1, “Novel formulations of opioid-based treatments of pain comprising substituted 1,4-di-piperidin-4-yl-piperazine derivatives” (priority 2003, published 2006).
